Data reported in US12331069B2, “DOT1L degraders and uses thereof” (DANA-FARBER CANCER INSTITUTE, INC., priority 2019, dated 2025).

Key:
[1] = tested on: HL60 (human leukemia) cells; experiment: Relative cell growth by cell count, HL60 cells (negative control line); format: cell-based; details: concentrations between 0 and 10 μM, after 10 days, effect with increased concentration
Description: (§1) FIGS. 12A-12D show a Western blot of an assay where MOLM 13 cells were treated with exemplary DOT1L degraders and then the cell numbers were counted over time to confirm the cellular activity of the cells. FIGS. 12A-12D show the relative cell growth (%), based on a cell count of acute myeloid leukemia cells upon the treatment of Molm13 PA cells, Molm13 RE cells, and human leukemia (HL60; as negative control) cells with exemplary DOT1L degraders at various concentrations in for 10 days.
(§2) Molm13 PA (acute myeloid leukemia), Molm13 RE (acute myeloid leukemia), and HL60 (human leukemia) cells were treated with exemplary thalidomide-based, DOT1L degrader compounds DOT1L-6, DOT1L-7, DOT1L-8, and RA190 at various concentrations between 0 and 10 μM. The relative cell growth of the Molm13 PA, Molm13 RE, and HL60 cells was measured to analyze cellular activity after 10 days.

[2] = tested on: Molm13 PA and Molm13 RE (acute myeloid leukemia) cells; experiment: Relative cell growth by cell count, Molm13 PA and Molm13 RE cells; format: cell-based; details: concentrations between 0 and 10 μM, after 10 days, effect with increased concentration
Description: as §1, §2

[3] = molecular target: RPN13 (Homo sapiens, UniProt Q16186); experiment: Biochemical (alpha signal) assay for inhibitors that disrupt the binding of RPN13 with poly-ubiquitinylation; details: FIG. 9C
RPN13, sequence (Q16186 whole entry): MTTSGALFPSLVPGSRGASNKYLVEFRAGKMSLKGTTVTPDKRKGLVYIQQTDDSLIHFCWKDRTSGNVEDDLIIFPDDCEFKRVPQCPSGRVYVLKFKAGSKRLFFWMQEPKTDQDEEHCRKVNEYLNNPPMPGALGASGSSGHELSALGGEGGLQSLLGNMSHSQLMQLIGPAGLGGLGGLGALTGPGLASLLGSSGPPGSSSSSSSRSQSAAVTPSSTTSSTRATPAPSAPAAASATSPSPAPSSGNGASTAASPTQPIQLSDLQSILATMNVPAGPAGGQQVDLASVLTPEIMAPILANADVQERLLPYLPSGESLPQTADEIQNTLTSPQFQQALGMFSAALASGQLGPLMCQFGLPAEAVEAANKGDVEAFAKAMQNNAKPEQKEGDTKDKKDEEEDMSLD
Source text: The assay was optimized based on concentrations of the target inhibitors, concentrations of compound RA190, and in view of the alpha signal. The conditions for the biochemical assay are recognized by those of ordinary skill in the art.

In the case of `N[C@@H](Cc1ccccc1)C(=O)N1C/C(=C\c2ccc(Cl)c(Cl)c2)C(=O)/C(=C/c2ccc(Cl)c(Cl)c2)C1` [RA190], the “Relative cell growth (based on cell count)” value [1] is reported as “reduced cell growth”, the “Relative cell growth (based on cell count)” value [2] is reported as “reduced cell growth” and the “Disruption of the binding of RPN13 with poly-ubiquitinylation” value [3] is reported as “can disrupt the binding”.
